Literature values, collected in US7468434B2, “Diazene-bridge crown ether lithium compounds and methods for their use” (The University of Hong Kong, priority 2004, dated 2008).

Tested on: retinal ganglion cells
Conditions: ocular hypertensive model

lithium chloride
prevention of degeneration of RGC: could prevent degeneration of RGC
